For two compounds, remaining activity and p-nitrophenylpalmitate hydrolysis assay results are on record in publication PMC3049140, “Mechanism of acetaldehyde-induced deactivation of microbial lipases” (BMC Biochemistry, 2011).

What all share (format): biochemical
For test [1], the target named is T1, BSL-B (Bacillus subtilis lipase B) (Bacillus subtilis, UniProt Q79F14).
T1 construct: gene estB
T1 sequence (Q79F14 29-210): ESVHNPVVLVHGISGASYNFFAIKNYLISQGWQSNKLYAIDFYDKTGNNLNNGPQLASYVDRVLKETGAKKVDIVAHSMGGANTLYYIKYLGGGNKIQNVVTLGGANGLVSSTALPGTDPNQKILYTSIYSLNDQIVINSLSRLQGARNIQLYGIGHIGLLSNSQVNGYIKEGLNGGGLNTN
Nature of the test: residual hydrolytic activity, p-nitrophenylpalmitate assay. Particulars: read-out: residual activity at 50 mM.

Test [2] has as its target T2, BSL-A (Bacillus subtilis lipase A) (Bacillus subtilis, UniProt P37957).
T2 construct: gene estA
T2 sequence (P37957 32-212): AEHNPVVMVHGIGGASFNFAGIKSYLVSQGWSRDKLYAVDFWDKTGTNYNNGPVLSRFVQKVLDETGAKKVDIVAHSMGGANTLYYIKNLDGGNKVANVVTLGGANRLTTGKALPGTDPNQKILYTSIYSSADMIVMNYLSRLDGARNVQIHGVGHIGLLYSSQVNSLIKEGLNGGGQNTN
In words: p-nitrophenylpalmitate hydrolysis assay.

For test [3], the target named is T1, BSL-B (Bacillus subtilis lipase B). In words: p-nitrophenylpalmitate hydrolysis assay.

As for `CC=CC=CC=O` [2,4-hexadienal], in test [1], the remaining activity at 50000 µM is 19%.
For the compound `CCCCCCCCCCCCCCCC(=O)Oc1ccc([N+](=O)[O-])cc1` [pNPP, p-nitrophenylpalmitate], the p-nitrophenylpalmitate hydrolysis assay entry in test [2] is recorded as “assayed for residual activity using the p-nitrophenylpalmitate assay”; in test [3] it was “residual enzyme activity determined with p-nitrophenylpalmitate as the substrate”.
